Measured values reported in PubChem BioAssay (NCI).
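48-hour exposure; five concentrations; linearly interpolated endpoints. TGI: concentration producing complete growth inhibition.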

Columns and labels:
Assay in all cases: NCI tumour cell line growth inhibition, 48 h
[1] = tested on: CAKI-1 renal
[2] = tested on: CCRF-CEM leukemia
[3] = tested on: COLO 205 colon
[4] = tested on: EKVX NSCLC
[5] = tested on: HCT-15 colon
[6] = tested on: HL-60(TB) leukemia
[7] = tested on: HT29 colon
[8] = tested on: LOX IMVI melanoma
[9] = tested on: NCI-H23 lung
[10] = tested on: NCI-H460 lung
[11] = tested on: OVCAR-3 ovarian
[12] = tested on: OVCAR-5 ovarian
[13] = tested on: OVCAR-8 ovarian
[14] = tested on: RXF 393 renal
[15] = tested on: SK-MEL-28 melanoma
[16] = tested on: SK-OV-3 ovarian
[17] = tested on: SNB-19 CNS
[18] = tested on: SW-620 colon
[19] = tested on: U251 CNS
[20] = tested on: UACC-257 melanoma

SMILES	TGI [1] [µM]	TGI [2] [µM]	TGI [3] [µM]	TGI [4] [µM]	TGI [5] [µM]	TGI [6] [µM]	TGI [7] [µM]	TGI [8] [µM]	TGI [9] [µM]	TGI [10] [µM]	TGI [11] [µM]	TGI [12] [µM]	TGI [13] [µM]	TGI [14] [µM]	TGI [15] [µM]	TGI [16] [µM]	TGI [17] [µM]	TGI [18] [µM]	TGI [19] [µM]	TGI [20] [µM]
CCOC(=O)C1=NN(c2ccccc2)C2=CC(C)=NN(C)C(=S)N21	> 100	> 100	> 100	> 100	> 100	> 100	> 100	> 100	> 100	> 100	> 100	> 100	> 100	> 100	> 100	> 100	> 100	> 100	> 100	> 100
CC[C@](C)(O)C(=O)O[C@H]1C(=O)O[C@@H]2C[C@H]3C(C)=C[C@H](O)[C@@H](O)[C@]3(C)[C@H]3[C@@]4(O)OC[C@]32[C@@H]1[C@@H](C)[C@H]4O	116	23.9	86.1	50.3	221	43.1	120	68.4	13.5	31.3	84.5	291	136	2.43	123	263	48.8	61.7	70.5	149
